Measured values reported in patent US20060154243A1 (priority 2003, published 2006).

Experiments:
two control sera = format: binding, human
[1] = test system: rabbit serum obtained by immunizing with SARS-CoV strain Frankfurt 1; format: binding
[2] = test system: sera SARS-green, SARS-yellow, 1a, 1b, 2, 6, 37, 62 and London; format: binding, human

NVVPPALHLVDPQIQ
Recognition by at least one of the control sera (two control sera): recognized by at least one of the control sera
Rabbit serum linear peptides [1]: 0.1
Rabbit serum looped peptides [1]: 0.5
Recognition of the peptide by sera of individuals infected by SARS-CoV, form recognized [2]: recognized in linear and in looped form

TVVQRCASNKPHVLE
Recognition by at least one of the control sera (two control sera): recognized by at least one of the control sera
Rabbit serum linear peptides [1]: 0.7
Rabbit serum looped peptides [1]: 0.3
Recognition of the peptide by sera of individuals infected by SARS-CoV, form recognized [2]: recognized in linear and in looped form

VVPPALHLVDPQIQL
Recognition by at least one of the control sera (two control sera): recognized by at least one of the control sera
Rabbit serum linear peptides [1]: 1.2
Rabbit serum looped peptides [1]: 0.4
Recognition of the peptide by sera of individuals infected by SARS-CoV, form recognized [2]: recognized in linear and in looped form

VPPALHLVDPQIQLT
Recognition by at least one of the control sera (two control sera): recognized by at least one of the control sera
Rabbit serum linear peptides [1]: 1.0
Rabbit serum looped peptides [1]: 0.4
Recognition of the peptide by sera of individuals infected by SARS-CoV, form recognized [2]: recognized in linear and in looped form

CTVVQRCASNKPHVL
Recognition by at least one of the control sera (two control sera): recognized by at least one of the control sera
Rabbit serum linear peptides [1]: 1.7
Rabbit serum looped peptides [1]: 1.0
Recognition of the peptide by sera of individuals infected by SARS-CoV, form recognized [2]: recognized in linear and in looped form

TNVVPPALHLVDPQI
Recognition by at least one of the control sera (two control sera): recognized by at least one of the control sera
Rabbit serum linear peptides [1]: 0.1
Rabbit serum looped peptides [1]: 0.5
Recognition of the peptide by sera of individuals infected by SARS-CoV, form recognized [2]: recognized in linear and in looped form
